“Also recorded” adds a separate entry of the source.
Key:
[1] = target: T1, S. aureus GMK (Staphylococcus aureus, UniProt P99176)
[2] = target: T1, S. aureus GMK; experiment: biochemical
[3] = target: T2, E. coli GMK (Escherichia coli, UniProt P60546); format: biochemical
[4] = system: chimeric E. coli GMKs with S. aureus lid domains; format: biochemical
[5] = target: T3, S. meliloti GMK (Sinorhizobium meliloti, UniProt Q92QZ2)
[6] = target: B. subtilis GMK Y77F (Bacillus subtilis, UniProt O34328, Y77F); format: biochemical
[7] = target: T4, D. radiodurans GMK (Deinococcus radiodurans, UniProt Q9RS38); experiment: biochemical
[8] = target: T5, S. coelicolor GMK (Streptomyces coelicolor, UniProt Q9KXS0)
[9] = target: T6, L. monocytogenes GMK (Listeria monocytogenes serovar 1/2a, UniProt Q8Y672); experiment: biochemical
[10] = target: T7, B. subtilis GMK (Bacillus subtilis, UniProt O34328)
[11] = target: T3, S. meliloti GMK; experiment: biochemical
[12] = target: T7, B. subtilis GMK; experiment: biochemical
[13] = target: T8, T. thermophilus GMK (Thermus thermophilus, UniProt Q5SI18)
[14] = target: T9, S. mutans GMK (Streptococcus mutans serotype c, UniProt Q8DVK6); experiment: biochemical
[15] = target: T4, D. radiodurans GMK
[16] = target: E. faecalis GMK-1 (Enterococcus faecalis, UniProt Q82ZD5); format: biochemical
[17] = target: Coxiella burnetii GMK (Coxiella burnetii, UniProt Q83EL7); format: biochemical
[18] = system: Yersinia enterocolitica GMK; format: biochemical
[19] = system: Pseudomonas syringae GMK; format: biochemical
[20] = target: T8, T. thermophilus GMK; experiment: biochemical
[21] = target: T2, E. coli GMK; format: binding
[22] = target: T9, S. mutans GMK
[23] = target: T10, C. gilvus GMK (Cellulomonas gilvus, UniProt F8A6C8); experiment: biochemical
[24] = target: A. tumefaciens GMK (Agrobacterium tumefaciens, UniProt Q8UGD7); format: biochemical
[25] = target: T. thermophilus IMPDH; settings: cited from earlier work
[26] = target: M. tuberculosis GMK (Mycobacterium tuberculosis, UniProt P9WKE9); format: biochemical
[27] = system: Klebsiella pneumoniae GMK; format: biochemical
[28] = target: T11, E. faecalis GMK-2 (Enterococcus faecalis, UniProt Q831B6); settings: cited from earlier work
[29] = target: T11, E. faecalis GMK-2; format: biochemical
[30] = target: T12, B. anthracis GMK (Bacillus anthracis, UniProt Q81WG7); experiment: biochemical
[31] = system: Neisseria meningitidis GMK; format: biochemical
[32] = target: T12, B. anthracis GMK
[33] = system: GMK of Rhodobacter sphaeroides; format: biochemical
[34] = target: T7, B. subtilis GMK; format: binding
[35] = target: T10, C. gilvus GMK
[36] = system: Chimeric S. aureus GMKs with E. coli lid domains; format: biochemical
[37] = target: T5, S. coelicolor GMK; experiment: biochemical
[38] = target: T6, L. monocytogenes GMK
[39] = system: Nc1nc2c(ncn2[C@@H]2O[C@H](COP(=O)(O)O)[C@@H](O)[C@H]2O)c(=O)[nH]1; experiment: purified protein, by the assay type; settings: 25.0 °C

Nc1nc2c(ncn2[C@@H]2O[C@H](COP(=O)(O)OP(=O)(O)O)[C@@H](OP(=O)(O)OP(=O)(O)O)[C@H]2O)c(=O)[nH]1 [ppGpp, guanosine tetraphosphate]
Mode of inhibition [1]: competitively inhibits
Ki [2]: 8.2 µM
Inhibition of GMK activity (sensitivity) [3]: resistant

Nc1nc2c(ncn2[C@@H]2O[C@H](COP(=O)(O)OP(=O)(O)OP(=O)(O)O)[C@@H](OP(=O)(O)OP(=O)(O)O)[C@H]2O)c(=O)[nH]1 [pppGpp, guanosine pentaphosphate]
Inhibition of GMK activity (sensitivity) [4]: still resistant
Mode of inhibition [5]: modestly and competitively inhibited and Comp
Ki of the variant (in words) [6]: increased Ki to a level comparable to that of B. anthracis GMK
Ki [7]: 1.6 ± 0.4 µM
Mode of inhibition [8]: competitively inhibited and Comp
IC50 [9]: 9 to 24 µM
Ki [9]: 12 ± 1.1 µM
Mode of inhibition [10]: Comp
Mode of inhibition [1]: competitively inhibits and Comp
Ki [11]: 81.6 ± 11.8 µM
IC50 [12]: ~16 µM
Mode of inhibition [13]: strongly and competitively inhibited and Comp
IC50 [14]: 9 to 24 µM
Ki [14]: 16.6 ± 2.4 µM
Mode of inhibition [15]: strongly and competitively inhibited and Comp
Mode of inhibition [16]: Comp
Inhibition of GMK activity (sensitivity) [17]: completely resistant
Inhibition of GMK activity (sensitivity) [18]: completely resistant
Inhibition of GMK activity (sensitivity) [19]: completely resistant
Ki [20]: 2.9 ± 0.5 µM
Binding by ITC [21]: not observed
IC50 [2]: 9 to 24 µM
Ki [2]: 7 µM
Mode of inhibition [22]: Comp
Ki [23]: 1.7 ± 0.5 µM
Ki [24]: 53.5 ± 8.9 µM
Mode of inhibition [24]: modestly and competitively inhibited and Comp
Ki [25]: ~11 µM
Inhibition of GMK activity (sensitivity) [26]: insensitive
Inhibition of GMK activity (sensitivity) [27]: completely resistant
IC50 [28]: ~460 µM
Ki [29]: 355 ± 26 µM
Mode of inhibition [29]: noncompetitively inhibited; also recorded: Noncomp
Inhibition of GMK activity (sensitivity) [3]: completely resistant
IC50 [30]: ~120 µM
Ki [30]: 42.5 ± 7.3 µM
Inhibition of GMK activity (sensitivity) [31]: completely resistant
Mode of inhibition [32]: Comp
Inhibition of GMK activity (sensitivity) [33]: resistant
Complex formation (binding) by ITC [34]: detected
Mode of inhibition [35]: competitively inhibited and Comp
Inhibition of GMK activity (sensitivity) [36]: more resistant
Ki [37]: 61.5 ± 9.6 µM
Mode of inhibition [38]: Comp

B. anthracis GMK (Bacillus anthracis)
Km [39]: 78.1 ± 39.7 µM
kcat [39]: 57.6 ± 21.9 s⁻¹

B. subtilis GMK (Bacillus subtilis subsp. subtilis str. 168)
Km [39]: 24.6 ± 3.4 µM
kcat [39]: 23 ± 1 s⁻¹

C. gilvus GMK (Cellulomonas gilvus ATCC 13127)
Km [39]: 22.5 ± 7.3 µM
kcat [39]: 25 ± 2.7 s⁻¹

D. radiodurans GMK (Deinococcus radiodurans R1 = ATCC 13939 = DSM 20539)
Km [39]: 17.8 ± 5.4 µM
kcat [39]: 44.5 ± 4.4 s⁻¹

L. monocytogenes GMK (Listeria monocytogenes EGD-e)
Km [39]: 84.7 ± 14.2 µM
kcat [39]: 54.9 ± 5.6 s⁻¹

S. aureus GMK (Staphylococcus aureus subsp. aureus N315)
Km [39]: 35.1 ± 7.1 µM
kcat [39]: 72.9 ± 7.2 s⁻¹

S. coelicolor GMK (Streptomyces coelicolor A3(2))
Km [39]: 29.7 ± 3.4 µM
kcat [39]: 25.5 ± 0.7 s⁻¹

S. meliloti GMK (Sinorhizobium meliloti 1021)
Km [39]: 14.1 ± 1.3 µM
kcat [39]: 19.5 ± 0.3 s⁻¹

S. mutans GMK (Streptococcus mutans UA159)
Km [39]: 147.4 ± 68.6 µM
kcat [39]: 68.9 ± 24.8 s⁻¹

T. thermophilus GMK (Thermus thermophilus HB8)
Km [39]: 17.5 ± 4.1 µM
kcat [39]: 4.8 ± 0.4 s⁻¹
